Assay results reported in patent US9278957B2, “Piperazine, piperidine and tetrahydropyridine derivatives and their pharmaceutical use” (ATIR Holding S.A., priority 2009, dated 2016).

Assays:
[1] = target: T1, 5-HT1A receptor (Homo sapiens, UniProt P08908); assay: 5-HT1A receptor binding (inhibition of labeled ligand binding); conditions: compound at 1micrMol
T1 sequence (P08908 1-422): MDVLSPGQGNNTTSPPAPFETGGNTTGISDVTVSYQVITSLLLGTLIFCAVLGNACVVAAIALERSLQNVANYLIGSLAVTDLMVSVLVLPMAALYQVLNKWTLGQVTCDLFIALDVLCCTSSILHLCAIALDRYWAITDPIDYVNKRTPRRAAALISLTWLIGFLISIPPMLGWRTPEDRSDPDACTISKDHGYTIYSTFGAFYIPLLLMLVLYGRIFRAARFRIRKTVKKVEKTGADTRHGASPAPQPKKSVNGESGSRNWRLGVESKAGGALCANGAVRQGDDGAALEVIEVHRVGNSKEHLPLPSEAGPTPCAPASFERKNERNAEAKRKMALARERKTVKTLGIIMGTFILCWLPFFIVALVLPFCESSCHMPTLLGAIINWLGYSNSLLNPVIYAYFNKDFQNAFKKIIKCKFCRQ
Description: (§1) The compounds of the invention may be used in the treatment of CNS disorders in mammals, especially human. Of particular interest is the use of the compounds of the invention as anti-dyskinetic agents. Dyskinesia is a serious side effect associated with L-DOPA treatment of patients with Parkinson's disease.
(§2) The compounds of Examples 1, 3, 4 and 9 were tested for their 5-HT1A receptor binding activity and dopamine (D2, D3 and D4.4) receptors binding activity according to the protocols set forth above. The percentage inhibition of labeled ligand binding caused by the indicated few test ligand compound of the invention at different concentrations of said test ligand is shown in Table I.

[2] = target: dopamine D2 receptor (Homo sapiens, UniProt P14416); assay: dopamine D2 receptor binding (inhibition of labeled ligand binding); conditions: compound at 1micrMol
Sequence of dopamine D2 receptor (P14416 whole entry): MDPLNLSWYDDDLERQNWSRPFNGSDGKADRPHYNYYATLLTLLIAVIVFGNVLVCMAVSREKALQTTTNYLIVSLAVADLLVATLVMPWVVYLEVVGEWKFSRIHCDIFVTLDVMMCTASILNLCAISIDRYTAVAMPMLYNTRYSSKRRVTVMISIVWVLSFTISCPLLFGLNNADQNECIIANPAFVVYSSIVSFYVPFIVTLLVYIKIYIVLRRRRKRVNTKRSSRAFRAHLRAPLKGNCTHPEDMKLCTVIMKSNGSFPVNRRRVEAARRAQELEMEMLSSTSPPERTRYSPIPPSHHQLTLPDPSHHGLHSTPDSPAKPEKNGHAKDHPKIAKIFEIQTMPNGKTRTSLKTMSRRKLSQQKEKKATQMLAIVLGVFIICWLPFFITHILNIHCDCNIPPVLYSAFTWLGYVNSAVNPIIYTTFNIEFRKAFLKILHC
Description: as §1, §2

[3] = target: dopamine D3 receptor (Homo sapiens, UniProt P35462); assay: dopamine D3 receptor binding (inhibition of labeled ligand binding); conditions: compound at 1micrMol
Sequence of dopamine D3 receptor (P35462 whole entry): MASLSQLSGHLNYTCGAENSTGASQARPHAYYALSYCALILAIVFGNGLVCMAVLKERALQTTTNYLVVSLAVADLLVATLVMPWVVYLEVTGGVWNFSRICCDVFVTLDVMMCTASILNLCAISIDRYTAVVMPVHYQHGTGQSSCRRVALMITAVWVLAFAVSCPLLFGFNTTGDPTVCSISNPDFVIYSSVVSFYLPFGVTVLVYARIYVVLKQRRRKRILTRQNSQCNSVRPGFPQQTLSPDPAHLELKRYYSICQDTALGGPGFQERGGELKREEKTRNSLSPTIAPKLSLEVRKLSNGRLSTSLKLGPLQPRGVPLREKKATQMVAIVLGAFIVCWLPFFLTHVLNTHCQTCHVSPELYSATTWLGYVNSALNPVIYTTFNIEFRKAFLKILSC
Description: as §1, §2

[4] = target: T2, dopamine D4.4 receptor (Homo sapiens, UniProt P21917); assay: dopamine D4.4 receptor binding (inhibition of labeled ligand binding); conditions: compound at 1micrMol
T2 sequence (P21917 1-419): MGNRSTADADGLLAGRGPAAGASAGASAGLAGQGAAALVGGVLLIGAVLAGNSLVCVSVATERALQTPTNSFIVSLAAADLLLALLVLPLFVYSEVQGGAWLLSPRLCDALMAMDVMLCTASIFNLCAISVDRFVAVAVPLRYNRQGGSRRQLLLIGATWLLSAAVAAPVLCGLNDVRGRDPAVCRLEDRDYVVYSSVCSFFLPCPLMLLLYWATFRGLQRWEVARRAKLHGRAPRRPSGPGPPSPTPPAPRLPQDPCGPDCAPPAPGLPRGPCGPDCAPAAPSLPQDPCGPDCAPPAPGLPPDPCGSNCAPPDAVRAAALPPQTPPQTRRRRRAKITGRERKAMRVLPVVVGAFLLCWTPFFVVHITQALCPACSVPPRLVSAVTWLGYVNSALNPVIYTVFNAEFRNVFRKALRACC
Description: as §1, §2

[5] = test system: L-DOPA induced dyskinesia in parkinsonian rats; assay: L-DOPA-induced abnormal involuntary movements (AIMS) in the 6-OHDA lesion rat model; format: in vivo
Description: In the following study, the compound of Example 2 was tested for its in vivo activity against L-DOpA induced dyskinesia in parkinsonian rats (the model is the L-DOPA-induced abnormal involuntary movements (AIMS) in the 6-hydroxydopamine (6-OHDA) lesion rat model).
Rats were unilaterally lesioned with (6-OHDA) in medial forebrain bundle. Three weeks later, rats were injected with apomorphine (0.1 mg/kg s.c.) and numbers of contralateral turns were counted using a rotameter. Two weeks after the apomorphine test, rats showing marked turning activity were selected and split into 2 groups:
The experimental group, which received the compound of Example 2, and the control group, which received the injection medium for said compound (CMC in saline); n=5 and 3 respectively.
All animals were treated daily with L-dopa/carbidopa (25/6 mg/kg respectively) and dyskinetic movements were scored commencing day 5. Compounds were administered in escalating dose, at daily doses shown below, commencing day 11 of L-dopa treatment: 1 mg/kg—11th day, 1 mg/kg—12th, 2 mg/kg—15th, 2 mg/kg—16th. On the 17th day, the rats of the control group were injected with propranolol (10 mg/kg in saline), whereas the rats of the experimental group were injected with saline. […]
The following dyskinetic movements were scored: dystonic posturing, head and upper body movements, forelimb, locomotion, trunk, orolingual.

Compound	5-HT1A binding, percentage inhibition of labeled ligand binding [1] [%]	D2 binding, percentage inhibition of labeled ligand binding [2] [%]	D3 binding, percentage inhibition of labeled ligand binding [3] [%]	D4 binding, percentage inhibition of labeled ligand binding [4] [%]	effect on abnormal involuntary movements (AIM score) ([5]; 6-OHDA lesioned rats on L-dopa/carbidopa, control group, 10 mg/kg in saline on the 17th day)	anti-dyskinetic effect (AIM score, sum of all movements) ([5]; 6-OHDA lesioned rats on daily L-dopa/carbidopa 25/6 mg/kg, 16th day, second successive daily dose of 2 mg/kg)
N#Cc1ccccc1N1CCN(Cc2cccc3c2oc2ccccc23)CC1 [Example L-109]	73.5	68.7	63.2	64.9	–	–
COc1ccccc1N1CCN(Cc2cccc3c2oc2ccccc23)CC1 [Example L-107]	86.7	96	33.7	78	–	–
CC(C)NCC(O)COc1cccc2ccccc12 (stereo not drawn) [Propanolol, propranolol, reference compound]	–	–	–	–	reduced the abnormal involuntary movements	–
c1ccc(C2CCN(Cc3cccc4c3oc3ccccc34)CC2)cc1 [Example L-105]	42.2	93.8	44.5	69.1	–	–
Oc1cccc(N2CCN(Cc3cccc4c3oc3ccccc34)CC2)c1 [Example L-33]	43.4	75	78.2	77.7	–	strong anti-dyskinetic effect
